The record followed here is US20240109918A1, “HETEROCYCLIC COMPOUNDS AND USES THEREOF” (Kumquat Biosciences Inc., priority 2022, published 2024).

The target in experiment [1] is T1, KRASwt (Homo sapiens, UniProt P01116).
T1 construct: made in house; host or cells: E. coli BL21 (DE3)
Put plainly: Bio-Biochem-PPI-HTRF Ras-SOS1 interaction assay (KRAS wt). The experiment is classed as biochemical. The settings on record: 5 nM. A digest of the protocol: (§1)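 GST-tagged K-Ras (wt or G12D) with anti-GST-Eu(K) donor was mixed with His-hSOS1 and anti-6His-XL665 acceptor in HEPES pH 7.4/NaCl/DTT/BSA/Igepal buffer, with compound in duplicate from 10 μM down to 0.01 μM. After about 10 min or longer, HTRF 665/620 nm ratio gave IC50.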
A general note: In TR-FRET formats the signal depends on donor and acceptor labels being close together.

The target of experiment [2] is T2, KRASG12D (Homo sapiens, UniProt P01116, G12D).
T2 construct: made in house; host or cells: E. coli BL21 (DE3)
Description: Bio-Biochem-PPI-HTRF Ras-SOS1 interaction assay (KRAS G12D). To be noted: 5 nM. The experiment is classed as biochemical. In outline: as §1

T2 sequence (P01116 1-188 isoform P01116-2 G12D): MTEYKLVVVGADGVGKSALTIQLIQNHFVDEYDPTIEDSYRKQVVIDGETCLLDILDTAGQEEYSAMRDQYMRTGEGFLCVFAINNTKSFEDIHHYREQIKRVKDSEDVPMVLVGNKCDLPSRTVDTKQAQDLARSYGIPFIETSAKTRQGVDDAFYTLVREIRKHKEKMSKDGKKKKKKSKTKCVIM
T1 sequence (P01116 1-188 isoform P01116-2): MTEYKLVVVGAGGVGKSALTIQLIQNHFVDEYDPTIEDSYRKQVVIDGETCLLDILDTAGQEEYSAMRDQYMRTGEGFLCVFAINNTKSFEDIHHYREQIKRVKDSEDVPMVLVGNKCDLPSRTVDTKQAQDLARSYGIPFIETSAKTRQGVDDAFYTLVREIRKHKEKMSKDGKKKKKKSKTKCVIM

Broadly, the IC50 is the midpoint of a concentration-inhibition curve. The low end stands for inhibition by little substance, the high end for a need for much substance. `N#Cc1c(N)sc2c(F)ccc(-c3c(Cl)cc4c(N5CCC6(CC5)CN(C(=O)C5CC5(F)F)CCO6)nc(OC[C@@]56CCCN5C[C@H](F)C6)nc4c3F)c12` (stereo partly drawn) [compound 171, 2-amino-4-(6-chloro-4-(4-(2,2-difluorocyclopropane-1-carbonyl)-1-oxa-4,9-diazaspiro[5.5]undecan-9-yl)-8-fluoro-2-(((2R,7aS)-2-fluorotetrahydro-1H-pyrrolizin-7a(5H)-yl)methoxy)quinazolin-7-yl)-7-fluorobenzo[b]thiophene-3-carbonitrile]: the half-inhibitory concentration (IC50) in experiment [1] and in experiment [2] was under 5 µM each time.

Regarding `N#Cc1c(N)sc2c(F)ccc(-c3c(Cl)cc4c(N5CCCCC6(CN(C(=O)NC7(C(F)(F)F)CC7)C6)C5)nc(OC[C@@]56CCCN5C[C@H](F)C6)nc4c3F)c12` [compound 289, 6-(7-(2-amino-3-cyano-7-fluorobenzo[b]thiophen-4-yl)-6-chloro-8-fluoro-2-(((2R,7aS)-2-fluorotetrahydro-1H-pyrrolizin-7a(5H)-yl)methoxy)quinazolin-4-yl)-N-(1-(trifluoromethyl)cyclopropyl)-2,6-diazaspiro[3.6]decane-2-carboxamide], the IC50 in experiment [1] and in experiment [2] was under 5 µM each time.

For `CC1CCCC2(CN(C(=O)C3CC3(F)F)C2)CN1c1nc(OC[C@@]23CCCN2C[C@H](F)C3)nc2c(F)c(-c3ccc(F)c4sc(N)c(C#N)c34)c(Cl)cc12` (stereo partly drawn) [compound 288, 2-amino-4-(6-chloro-4-(2-(2,2-difluorocyclopropane-1-carbonyl)-7-methyl-2,6-diazaspiro[3.6]decan-6-yl)-8-fluoro-2-(((2R,7aS)-2-fluorotetrahydro-1H-pyrrolizin-7a(5H)-yl)methoxy)quinazolin-7-yl)-7-fluorobenzo[b]thiophene-3-carbonitrile], the IC50 in experiment [1] and in experiment [2] was under 5 µM each time.

With `N#Cc1c(N)sc2c(F)ccc(-c3c(Cl)cc4c(N5CC(F)CCC6(CN(C(=O)[C@@H]7CC7(F)F)C6)C5)nc(OC[C@@]56CCCN5C[C@H](F)C6)nc4c3F)c12` (stereo partly drawn) [compound 269, 2-amino-4-(6-chloro-4-(2-((S)-2,2-difluorocyclopropane-1-carbonyl)-8-fluoro-2,6-diazaspiro[3.6]decan-6-yl)-8-fluoro-2-(((2R,7aS)-2-fluorotetrahydro-1H-pyrrolizin-7a(5H)-yl)methoxy)quinazolin-7-yl)-7-fluorobenzo[b]thiophene-3-carbonitrile], the IC50 in experiment [1] and in experiment [2] was under 5 µM each time.

On to `N#Cc1c(N)sc2c(F)ccc(-c3c(Cl)cc4c(N5CCCCC6(CN(C(=O)CC7CC7(F)F)C6)C5)nc(OC[C@@]56CCCN5C[C@H](F)C6)nc4c3F)c12` (stereo partly drawn) [compound 235, 2-amino-4-(6-chloro-4-(2-(2-(2,2-difluorocyclopropyl)acetyl)-2,6-diazaspiro[3.6]decan-6-yl)-8-fluoro-2-(((2R,7aS)-2-fluorotetrahydro-1H-pyrrolizin-7a(5H)-yl)methoxy)quinazolin-7-yl)-7-fluorobenzo[b]thiophene-3-carbonitrile], for which the IC50 in experiment [1] and in experiment [2] was under 5 µM in each case.

On to `N#Cc1c(N)sc2c(F)ccc(-c3c(Cl)cc4c(N5CCC6(CN(C(=O)C7CC7(F)F)C6)C5)nc(OC[C@@]56CCCN5C[C@H](F)C6)nc4c3F)c12` (stereo partly drawn) [compound 143, 2-amino-4-(6-chloro-4-(2-(2,2-difluorocyclopropane-1-carbonyl)-2,6-diazaspiro[3.4]octan-6-yl)-8-fluoro-2-(((2R,7aS)-2-fluorotetrahydro-1H-pyrrolizin-7a(5H)-yl)methoxy)quinazolin-7-yl)-7-fluorobenzo[b]thiophene-3-carbonitrile], for which the IC50 in experiment [1] and in experiment [2] was under 5 µM each time.

In the case of `Cc1cc(C(=O)N2CC3(CCCCN(c4nc(OC[C@@]56CCCN5C[C@H](F)C6)nc5c(F)c(-c6ccc(F)c7sc(N)c(C#N)c67)c(Cl)cc45)C3)C2)nn1C(F)F` [compound 209, 2-amino-4-(6-chloro-4-(2-(1-(difluoromethyl)-5-methyl-1H-pyrazole-3-carbonyl)-2,6-diazaspiro[3.6]decan-6-yl)-8-fluoro-2-(((2R,7aS)-2-fluorotetrahydro-1H-pyrrolizin-7a(5H)-yl)methoxy)quinazolin-7-yl)-7-fluorobenzo[b]thiophene-3-carbonitrile], the IC50 in experiment [1] and in experiment [2] was under 5 µM throughout.

Consider `N#Cc1c(N)sc2c(F)ccc(-c3c(Cl)cc4c(N5CCCCC6(CN(C(=O)C7CC78CCOC8)C6)C5)nc(OC[C@@]56CCCN5C[C@H](F)C6)nc4c3F)c12` (stereo partly drawn) [compound 267, 4-(4-(2-(5-oxaspiro[2.4]heptane-1-carbonyl)-2,6-diazaspiro[3.6]decan-6-yl)-6-chloro-8-fluoro-2-(((2R,7aS)-2-fluorotetrahydro-1H-pyrrolizin-7a(5H)-yl)methoxy)quinazolin-7-yl)-2-amino-7-fluorobenzo[b] thiophene-3-carbonitrile], for which the IC50 in experiment [1] and in experiment [2] was under 5 µM in each case.

Take `N#CCC(=O)N1CC2(CCCCN(c3nc(OC[C@@]45CCCN4C[C@H](F)C5)nc4c(F)c(-c5ccc(F)c6sc(N)c(C#N)c56)c(Cl)cc34)C2)C1` [compound 194, 2-amino-4-(6-chloro-4-(2-(2-cyanoacetyl)-2,6-diazaspiro[3.6]decan-6-yl)-8-fluoro-2-(((2R,7aS)-2-fluorotetrahydro-1H-pyrrolizin-7a(5H)-yl)methoxy)quinazolin-7-yl)-7-fluorobenzo[b]thiophene-3-carbonitrile]: the IC50 in experiment [1] and in experiment [2] was under 5 µM throughout.

For `C#Cc1c(F)ccc2cc(O)cc(-c3ccc4c(N5CCCCC6(CN(C(=O)[C@H]7CC7(F)F)C6)C5)nc(OC[C@@]56CCCN5C[C@H](F)C6)nc4c3F)c12` [compound 305, ((R)-2,2-difluorocyclopropyl) (6-(7-(8-ethynyl-7-fluoro-3-hydroxynaphthalen-1-yl)-8-fluoro-2-(((2R,7aS)-2-fluorotetrahydro-1H-pyrrolizin-7a(5H)-yl)methoxy)quinazolin-4-yl)-2,6-diazaspiro[3.6]decan-2-yl)methanone], the IC50 in experiment [1] and in experiment [2] was under 5 µM throughout.

Regarding `N#Cc1c(N)sc2c(F)ccc(-c3c(Cl)cc4c(N5CCOC6(CN(C(=O)[C@@H]7CC7(F)F)C6)C5)nc(OC[C@@]56CCCN5C[C@H](F)C6)nc4c3F)c12` [compound 217, 2-amino-4-(6-chloro-4-(2-((S)-2,2-difluorocyclopropane-1-carbonyl)-5-oxa-2,8-diazaspiro[3.5]nonan-8-yl)-8-fluoro-2-(((2R,7aS)-2-fluorotetrahydro-1H-pyrrolizin-7a(5H)-yl)methoxy)quinazolin-7-yl)-7-fluorobenzo[b]thiophene-3-carbonitrile], the IC50 in experiment [1] and in experiment [2] was under 5 µM each time.

For `CC1(NC(=O)N2CC3(CCCCN(c4nc(OC[C@@]56CCCN5C[C@H](F)C6)nc5c(F)c(-c6ccc(F)c7sc(N)c(C#N)c67)c(Cl)cc45)C3)C2)COC1` [compound 328, 6-(7-(2-amino-3-cyano-7-fluorobenzo[b]thiophen-4-yl)-6-chloro-8-fluoro-2-(((2R,7aS)-2-fluorotetrahydro-1H-pyrrolizin-7a(5H)-yl)methoxy)quinazolin-4-yl)-N-(3-methyloxetan-3-yl)-2,6-diazaspiro[3.6]decane-2-carboxamide], the 50% inhibitory concentration (IC50) in experiment [1] and in experiment [2] was under 5 µM throughout.

Turning to `N#Cc1c(N)sc2c(F)ccc(-c3c(Cl)cc4c(N5CCOC6(CN(C#N)C6)C5)nc(OC[C@@]56CCCN5C[C@H](F)C6)nc4c3F)c12` [compound 190, 8-(7-(2-amino-3-cyano-7-fluorobenzo[b]thiophen-4-yl)-6-chloro-8-fluoro-2-(((2R,7aS)-2-fluorotetrahydro-1H-pyrrolizin-7a(5H)-yl)methoxy)quinazolin-4-yl)-5-oxa-2,8-diazaspiro[3.5]nonane-2-carbonitrile], the IC50 in experiment [1] and in experiment [2] was under 5 µM in each case.

For `CN(C)CCC(=O)N1CC2(C1)CN(c1nc(OC[C@@]34CCCN3C[C@H](F)C4)nc3c(F)c(-c4ccc(F)c5sc(N)c(C#N)c45)c(Cl)cc13)CCO2` [compound 312, 2-amino-4-(6-chloro-4-(2-(3-(dimethylamino)propanoyl)-5-oxa-2,8-diazaspiro[3.5]nonan-8-yl)-8-fluoro-2-(((2R,7aS)-2-fluorotetrahydro-1H-pyrrolizin-7a(5H)-yl)methoxy)quinazolin-7-yl)-7-fluorobenzo[b]thiophene-3-carbonitrile], the IC50 in experiment [1] and in experiment [2] was under 5 µM throughout.

`N#Cc1c(N)sc2c(F)ccc(-c3c(Cl)cc4c(N5CCOC6(CN(C(=O)C7(C(F)F)COC7)C6)C5)nc(OC[C@@]56CCCN5C[C@H](F)C6)nc4c3F)c12` [compound 252, 2-amino-4-(6-chloro-4-(2-(3-(difluoromethyl)oxetane-3-carbonyl)-5-oxa-2,8-diazaspiro[3.5]nonan-8-yl)-8-fluoro-2-(((2R,7aS)-2-fluorotetrahydro-1H-pyrrolizin-7a(5H)-yl)methoxy)quinazolin-7-yl)-7-fluorobenzo[b]thiophene-3-carbonitrile]: the IC50 in experiment [1] and in experiment [2] was under 5 µM in each case.

In the case of `N#Cc1c(N)sc2c(F)ccc(-c3c(Cl)cc4c(N5CCCCC6(CN(C(=O)C78CC(C#N)(C7)C8)C6)C5)nc(OC[C@@]56CCCN5C[C@H](F)C6)nc4c3F)c12` [compound 279, 2-amino-4-(6-chloro-4-(2-(3-cyanobicyclo[1.1.1]pentane-1-carbonyl)-2,6-diazaspiro[3.6]decan-6-yl)-8-fluoro-2-(((2R,7aS)-2-fluorotetrahydro-1H-pyrrolizin-7a(5H)-yl)methoxy)quinazolin-7-yl)-7-fluorobenzo[b]thiophene-3-carbonitrile], the IC50 in experiment [1] and in experiment [2] was under 5 µM in each case.
